Test results: patent US4260761A, “Intermediates for the preparation of octahydro-1H-benzo[4,5]furo[3,2,-e]-isoquinoline analgesic and narcotic antagonistic compounds” (priority 1980, dated 1981)

Key:
Straub tail = Straub tail test (narcotic agonist effect), oral, mice; type: in vivo, mice (CF1 S female); conditions: tail erected 90° or more within 24 minutes
Experimental: Narcotic analgesics produce in mice an erection and arching of the tail (90° or more) which is referable to spinal cord stimulation. This Straub tail reaction is not produced by other analgesics, including the narcotic antagonists.
The method used was modified from Shemano, I., and Wendel, H., Tox. Appl. Pharm., 6, 334-9 (1964). CF1 S female mice (18-21 g), 10-20 mice per dose, were intubated with log scaled doses of analgesic in 1% aqueous methylcellulose. A positive Straub tail response was recorded if a tail was erected 90° or more for 5 seconds at any time within 24 minutes after dosing. A quantal Straub tail ED50 was calculated by the moving average method [Thompson, W. R., Bact. Rev., 11, 115-145 (1947)].
(§1) Most of the compounds were analgetic in the mouse antiphenylquinone test system and only a few caused Straub tail. Most also were antagonists in the mouse anti-Straub tail test.
(§2) On the other hand, the very high Straub tail ED50 's indicate that most of the compounds of the invention have very low likelihood of being addictive. […] Thus, the compounds of the invention are characterized by rapid onset of action, high oral potency and the ability to alleviate deepseated pain. Furthermore, abuse liability for most of the compounds should be extremely low or non-existent.

[1] = tested on: phenylquinone-induced writhing; experiment: Phenylquinone writhing (PQW) analgesic test, oral, mice; type: in vivo, mice (female white); conditions: for EFFECT ED50, Oral Anti-PQW: mice, phenylquinone writhing
Experimental: A standard procedure for detecting and comparing the analgesic activity of compounds in this series for which there is good correlation with human efficacy is the standard phenylquinone writhing test modified from Siegmund, et al., Proc. Soc. Exp. Biol. Med., 95, 729 (1957). A test compound suspended in 1% methocel® was given orally to fasted (17-21 hours) female white mice, 5-20 animals per double blind test. Aqueous (0.01% phenyl-p-benzoquinone) phenylquinone was injected intraperitoneally at 24 minutes later using 0.20 ml per mouse. […] The effective analgesic dose for 50% of the mice (ED50) was calculated by the moving average method of Thompson, W. R., Bact. Rev., 11, 115-145 (1947).
as §1, §2

[2] = tested on: morphine-induced Straub tail; experiment: Anti-Straub tail test (antagonism of morphine-induced Straub tail), mice; type: in vivo, mice (female CF1 S)
Experimental: This property is the basis of a mouse test for narcotic antagonists.
Female CF1 S mice (fasted 17-21 hrs.), 5 per dose, were injected orally or subcutaneously with test drug at 0.67, 2, 6, 18, 54 and 162 mg/kg or other appropriate doses in 0.20 ml 1% Methocel® per mouse. Five minutes later, 30 mg/kg of morphine sulfate in 0.20 ml 1% Methocel® per mouse was given intraperitoneally starting ten minutes later, the mice were observed continuously for 5 minutes for evidence of Straub tail. Prevention of a 90° Straub tail during this observation period was taken as indication of narcotic antagonist ability.
as §1, §2

opiate analgesics = conditions: background; cited from earlier work
[3] = background; cited from earlier work
[4] = Lasagna and Beecher 1954; cited from earlier work
[5] = tested on: morphine-induced Straub tail; conditions: mice; Blumberg et al. 1968; cited from earlier work

CN1CC[C@]23c4cccc(O)c4O[C@H]2CCC[C@H]3C1 (relative stereo) [Example 3, 3-Methyl-2,3,4,4aα,5,6,7,7aα-octahydro-1H-benzo[4,5]furo[3,2-e]isoquinolin-9-ol]
ED50 (Straub tail; Mus musculus, 0.4 h): 135 mg/kg

Oc1cccc2c1O[C@H]1CCC[C@H]3CN(CC4CC4)CC[C@@]231 (relative stereo) [Example 5, 3-Cyclopropylmethyl-2,3,4,4aα,5,6,7,7aα-octahydro-1H-benzo[4,5]furo[3,2-e]isoquinolin-9-ol]
analgesic potency relative to morphine ([1]; mouse analgesia data): several times greater potency than morphine

COc1cccc2c1O[C@H]1CCC[C@H]3CN(Cc4ccccc4)CC[C@@]231 (relative stereo) [Example 10, 3-Benzyl-9-methoxy-2,3,4,4aα,5,6,7,7aα-octahydro-1H-benzo[4,5]furo[3,2-e]isoquinoline]
narcotic antagonism ([2]; mouse anti-Straub tail test): pure narcotic antagonists

COc1cccc2c1O[C@H]1CCC[C@H]3CN(CC#N)CC[C@@]231 (relative stereo) [Example 20, 9-Methoxy-2,3,4,4aα,5,6,7,7aα-octahydro-1H-benzo[4,5]furo[3,2-e]isoquinoline-3-acetonitrile]
ED50 ([2]; Mus musculus, sc, subcutaneous, mice, vs morphine sulfate 30 mg/kg i.p., read-out: EFFECT ED50, Anti-Straub Tail (s.c.)): 27 mg/kg

CN1CCC23c4cccc(O)c4OC2CCCC3C1 (single isomer, unassigned) [Example 3 (+)isomer]
EFFECT ED50, Oral Anti-PQW ([1]; listed as 3 (+)isomer): 61
EFFECT ED50, Anti-Straub Tail (s.c.) ([2]; subcutaneous, mice, vs morphine sulfate 30 mg/kg i.p., listed as 3 (+)isomer): 3.3
EFFECT ED50, Oral Straub-Tail (Straub tail): > 135

CN1CCC23c4cccc(O)c4OC2CCCC3C1 (single isomer, unassigned) [Example 3 (-) isomer]
EFFECT ED50, Oral Anti-PQW ([1]; listed as 3 (-) isomer): 2.1
EFFECT ED50, Anti-Straub Tail (s.c.) ([2]; subcutaneous, mice, vs morphine sulfate 30 mg/kg i.p., listed as 3 (-) isomer): 0.14
EFFECT ED50, Oral Straub-Tail (Straub tail): > 135

CN1CC[C@]23c4c5ccc(O)c4O[C@H]2[C@@H](O)C=C[C@H]3[C@H]1C5 [Morphine]
EFFECT ED50, Oral Anti-PQW [1]: 3.0
EFFECT ED50, Oral Straub-Tail (Straub tail): 48

C=CCN1CC[C@]23CCCC[C@H]2[C@H]1Cc1ccc(O)cc13 [levallorphan]
antagonism of opiate analgesics (opiate analgesics): effectively antagonize overdoses of the opiate analgesics
intrinsic analgesic activity [3]: some analgesic effects by themselves

C=CCN1CC[C@]23c4c5ccc(O)c4O[C@H]2[C@@H](O)C=C[C@H]3[C@H]1C5 [nalorphine]
antagonism of opiate analgesics (opiate analgesics): effectively antagonize overdoses of the opiate analgesics
analgetic properties in man [4]: also has analgetic properties in man
intrinsic analgesic activity [3]: some analgesic effects by themselves
prevention of morphine-induced Straub tail [5]: prevent the induction of Straub tail in mice

C=CCN1CC[C@]23c4c5ccc(O)c4O[C@H]2C(=O)CC[C@@]3(O)[C@H]1C5 [naloxone]
antagonism of emetic effect of meperidine (opiate analgesics): antagonizes the emetic effect of meperidine
antagonism of opiate analgesics (opiate analgesics): effectively antagonize overdoses of the opiate analgesics
prevention of morphine-induced Straub tail [5]: prevent the induction of Straub tail in mice
